Assay results as given in ChEMBL document CHEMBL5523769, “Discovery of Novel Nonpeptidic and Noncovalent Small Molecule 3CLpro Inhibitors as anti-SARS-CoV-2 Drug Candidate” (J Med Chem, 2024).
Activity calls are given as the source filed them. No cut-off for these calls is given here.

What was measured:
[1] = test system: SARS-CoV-2; assay: Antiviral activity against SARS-CoV-2 omicron BA.5 variant infected in K18-hACE2 transgenic mouse model assessed as increase in body weight at 50 mg/kg, po pre-infected with virus for 2 hrs followed by twice daily compound administration and measured on day 4 in presence of nirmatrelvir; assay type: functional, organism-based; details: Severe acute respiratory syndrome coronavirus 2, time 4.0 day
[2] = test system: SARS-CoV-2; assay: microbe, parasite or virus in culture; details: Severe acute respiratory syndrome coronavirus 2, Delta, Vero C1008
[3] = test system: SARS-CoV-2; assay: microbe, parasite or virus in culture; details: Severe acute respiratory syndrome coronavirus 2, Delta, Vero C1008; remark: listed apart in the source
[4] = test system: SARS-CoV-2; assay: Antiviral activity against SARS-CoV-2 omicron BA.5 variant infected in K18-hACE2 transgenic mouse model assessed as log reduction in viral copies in lungs at 200 mg/kg, po pre-infected with virus for 2 hrs followed by twice daily compound administration and measured on day 2; assay type: functional, Severe acute respiratory syndrome coronavirus 2; details: time 2 day
[5] = test system: SARS-CoV-2; assay: Antiviral activity against SARS-CoV-2 omicron BA.5 variant infected in K18-hACE2 transgenic mouse model assessed as log reduction in viral copies in lungs at 200 mg/kg, po pre-infected with virus for 2 hrs followed by twice daily compound administration and measured on day 4; assay type: functional, Severe acute respiratory syndrome coronavirus 2; details: time 4 day
[6] = test system: SARS-CoV-2; assay: Antiviral activity against SARS-CoV-2 omicron BA.5 variant infected in K18-hACE2 transgenic mouse model assessed as increase in body weight at 100 to 200 mg/kg, po pre-infected with virus for 2 hrs followed by twice daily compound administration and measured on day 4; assay type: functional, organism-based; details: Severe acute respiratory syndrome coronavirus 2, dose 100-200 mg/kg, time 4.0 day
[7] = test system: SARS-CoV-2; assay: Antiviral activity against SARS-CoV-2 omicron BA.5 variant infected in K18-hACE2 transgenic mouse model assessed as inhibition of viral replication at 100 mg/kg, po pre-infected with virus for 2 hrs followed by twice daily compound administration and measured on day 2 to 4; assay type: functional, organism-based; details: Severe acute respiratory syndrome coronavirus 2, time 2-4 day
[8] = test system: SARS-CoV-2; assay: Antiviral activity against SARS-CoV-2 omicron BA.5 variant infected in K18-hACE2 transgenic mouse model assessed as increase in body weight at 200 mg/kg, po pre-infected with virus for 2 hrs followed by twice daily compound administration and measured on day 4 in presence of ritonavir; assay type: functional, organism-based; details: Severe acute respiratory syndrome coronavirus 2, time 4.0 day

For `CC(C)c1nc(CN(C)C(=O)N[C@H](C(=O)N[C@@H](Cc2ccccc2)C[C@H](O)[C@H](Cc2ccccc2)NC(=O)OCc2cncs2)C(C)C)cs1`, the Activity [1] was “Active”.

`O=C(N[C@H]1CCCC[C@H]1Nc1c(C(=O)N2CCOCC2)cc(Br)cc1[N+](=O)[O-])c1cc(=O)[nH]c2ccccc12` gave an EC50 [2] of 3.36 µM.

With `CNC(=O)c1cc(Br)cc([N+](=O)[O-])c1N[C@@H]1CCCC[C@@H]1NC(=O)c1cc(=O)[nH]c2c(F)cccc12` the EC50 [2] was 0.346 µM.

`CNC(=O)c1cc(Br)cc([N+](=O)[O-])c1N[C@@H]1CCCC[C@@H]1NC(=O)c1cc(=O)[nH]c2ccc(F)cc12` gave an EC50 [2] of 2.44 µM.

`COc1ccc2[nH]c(=O)cc(C(=O)N[C@H]3CCCC[C@H]3Nc3c(C(=O)N4CCOCC4)cc(C4CC4)cc3[N+](=O)[O-])c2c1` showed an EC50 [2] of 7.81 µM.

For `O=C(c1cc(=O)[nH]c2ccccc12)N1CCN(c2ccc(Cl)c(Cl)c2)CC1CN1CCOCC1` (centres undefined), the EC50 [2] was 7.24 µM and the EC50 [3] was 7.24 µM.

`CNC(=O)c1cc(Br)cc([N+](=O)[O-])c1N[C@@H]1CCCC[C@@H]1NC(=O)c1cc(=O)[nH]c2ccccc12` gave an EC50 [2] of 0.849 µM.

`O=C(NCCCC(F)(F)F)C1CN(c2ccc(Cl)c(Cl)c2)CCN1C(=O)c1cc(=O)[nH]c2ccccc12` (centres undefined) was tested, and the EC50 [2] was 3.95 µM.

Work on `O=C(N[C@H]1CCCC[C@H]1Nc1c(C(=O)N2CCOCC2)cc(Br)cc1[N+](=O)[O-])c1cc(=O)[nH]c2c(F)cccc12` yielded an EC50 [2] of 0.367 µM.

With `CNC(=O)c1cc(C2CC2)cc([N+](=O)[O-])c1N[C@@H]1CCCC[C@@H]1NC(=O)c1cc(=O)[nH]c2ccccc12` the EC50 [2] was 2.69 µM.

`CN1CCN(C(=O)c2cc(Br)cc([N+](=O)[O-])c2N[C@@H]2CCCC[C@@H]2NC(=O)c2cc(=O)[nH]c3c(F)cccc23)CC1` was tested, and the “log(activity)” value [4] was 1.5, the EC50 [2] was 0.272 µM and the “log(activity)” value [5] was 1. The Activity [6] was “Active” and the Activity [7] was “Active”.

Molecule `O=C(N[C@H]1CCCC[C@H]1Nc1c(C(=O)N2CCOCC2)cc(C2CC2)cc1[N+](=O)[O-])c1cc(=O)[nH]c2ccccc12` has an EC50 [2] of 4.46 µM.

For `CC(C)(C)[C@H](NC(=O)C(F)(F)F)C(=O)N1C[C@H]2[C@@H]([C@H]1C(=O)N[C@H](C#N)C[C@@H]1CCNC1=O)C2(C)C`, the Activity [8] was “Active”.

For `O=C(NCCC(F)(F)F)C1CN(c2ccc(Cl)c(Cl)c2)CCN1C(=O)c1cc(=O)[nH]c2ccccc12` (centres undefined), the EC50 [2] was 17.7 µM.
